Data: patent US20230233500A1, “Gasdermin D (GSDMD) Succination for the Treatment of Inflammatory Disease” (University of Massachusetts, priority 2020, published 2023)
Entries after “also recorded” stand apart in the source; their conditions may differ. Counter-ions that a name gives are not always drawn. Like-named read-outs stand apart in the source and are kept apart here.

Tests used:
h.GSDME = biological target: T1, h.GSDME (Homo sapiens, UniProt O60443); experiment: In vitro succination reaction with LC-MS/MS peptide mapping; type: binding
T1 sequence (O60443 1-496): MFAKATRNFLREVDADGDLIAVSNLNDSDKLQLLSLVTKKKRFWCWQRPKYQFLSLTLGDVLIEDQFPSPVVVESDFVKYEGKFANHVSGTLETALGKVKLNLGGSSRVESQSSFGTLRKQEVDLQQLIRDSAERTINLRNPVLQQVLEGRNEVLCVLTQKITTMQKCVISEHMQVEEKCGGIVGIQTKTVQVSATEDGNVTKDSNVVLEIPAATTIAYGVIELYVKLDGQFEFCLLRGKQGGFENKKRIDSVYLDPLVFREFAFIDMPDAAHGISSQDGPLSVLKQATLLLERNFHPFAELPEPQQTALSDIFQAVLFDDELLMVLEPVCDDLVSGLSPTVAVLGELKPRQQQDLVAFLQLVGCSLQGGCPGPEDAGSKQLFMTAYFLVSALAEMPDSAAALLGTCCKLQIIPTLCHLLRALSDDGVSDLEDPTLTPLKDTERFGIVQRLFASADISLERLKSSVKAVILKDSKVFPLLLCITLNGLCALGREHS

GSDMD-N = biological target: T2, GSDMD-N (Mus musculus, UniProt Q9D8T2); experiment: GSDMD-N induced LDH release in HEK293T cells; type: cell-based; conditions: transfected HEK293T cells
T2 construct: Caspase cleavage of GSDMD liberates an N-terminal pore forming fragment (GSDMD-N, p30); host or cells: HEK293T
T2 sequence (Q9D8T2 1-276 limits assumed): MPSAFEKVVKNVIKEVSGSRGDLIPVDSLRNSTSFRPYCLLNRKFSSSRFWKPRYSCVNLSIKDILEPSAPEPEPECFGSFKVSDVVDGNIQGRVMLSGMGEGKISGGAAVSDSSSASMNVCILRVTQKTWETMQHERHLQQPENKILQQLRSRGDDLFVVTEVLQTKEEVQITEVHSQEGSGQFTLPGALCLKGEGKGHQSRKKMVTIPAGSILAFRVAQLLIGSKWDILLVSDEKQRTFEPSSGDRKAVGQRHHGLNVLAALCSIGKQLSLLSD
From the text: FIGS. 2A-J. Succination of GSDMD inhibits pyroptosis. Immunoblot of GSDMD in streptavidin pulldown from clicked lysates treated as indicated (A-B). Representative MS spectra of 2-monomethyl and 2-dimethylsuccination of GSDMD immunoprecipitated from fumarate treated BMDMs (C-D). Immunoblot of GSDMD in clicked lysates from transfected HEK293T. Cell death of HEK293T transfected as indicated (F-H). Immunoblots of casplp20 and GSDMD in BMDMs (I). Immunoblots of an in vitro binding assay of succinated and non-succinated GSDMD incubated with caspase 1 beads (J). A, B, F, J, […] representative images from three independent experiments. C, D, E, representative mass spec spectra from two independent experiments. H, I pooled data from three independent experiments. ***, P<0.001 (One-way anova). Error bars show means±SEM.
Cells were plated, treated and incubated in phenol red free medium. Following treatment medium was collected and assessed for LDH release using the CytoTox96 non-radioactive cytotoxicity assay (Promega) as per manufacturer's instructions. […]
Primary BMDMs from WT or GsdmD^−/− mice were cultured in 12-well plates (1×10^6 cells per ml; 1 ml) or 10 cm dishes (2×10^6 cells per ml; 10 ml). […] Samples were resolved by SDS-PAGE and stained using simply blue safe stain or transferred to nitrocellulose membranes and analyzed by immunoblot. […]

EAE in WT mice = experiment: Experimental autoimmune encephalomyelitis (EAE); type: in vivo, mouse
[1] = system: Mefv^V726/V726 mouse model; experiment: Familial Mediterranean Fever Mefv V726/V726 mouse model; type: in vivo; conditions: for weight (weight loss / weight gain): diet containing dimethyl fumarate (100 mg/kg/day; 0.1% DMF) for 6 weeks; for GSDMD-N (GsdmD-p30) formation in spleen: immunoblot
Procedure: FIGS. 15A-E. Fumarate alleviates FMF. (A-D) Weight gain (A), spleen weight (B), ELISA of serum IL-1B and immunoblot of spleen GSDMD (D) liver H&E (E) from Mefv726/726 receiving vehicle diet or a diet containing dimethyl fumarate (100 mg/kg/day) for 6 weeks. Data points indicative of individual mice. *, P<0.05 ***, P<0.001 (t-test or Two-way ANOVA). Error bars show means±SEM.
All animal experiments were approved by the Institutional Animal Care Use Committees at the University of Massachusetts Medical School. Animal were kept in specific pathogen free (SPF) environment. Male and female C57/BL6 and Gsdmd−/− mice were used. Gsdmd−/− mice were generated as previously described (22). MefvV726/V726 mice were a gift from Prof. Daniel Kastner (23). Sample sizes used are in line with other similar published studies. All animals were used at age 8-12 weeks.
DMF embedded mouse diet was formulated by Lab Diets®. DMF was added to a base diet of laboratory lab diet 5001 at a dose 100 mg/kg/day of consumption. Mice received the control base diet or the DMF containing diet for 6 weeks.

[2] = flow cytometry, spinal cord and brain
[3] = diet containing dimethyl fumarate for 6 weeks
[4] = diet containing dimethyl fumarate for 6 weeks, listed as DMF

Compound: COC(=O)/C=C/C(=O)OC [Fumarate, Dimethyl fumarate]
- In vitro cysteine succination sites (h.GSDME): Cys^45
- In vitro cysteine succination sites (h.GSDME; listed as DMF): Cys235; also recorded: Cys371; also recorded: Cys408; also recorded: Cys489; also recorded: Cys45; also recorded: Cys156; also recorded: Cys180
- GSDMD-N induced LDH release (GSDMD-N): inhibited
- onset of EAE (clinical scores) (EAE in WT mice; WT mice, fumarate daily after EAE induction): blocked
- Th1 (IFN-γ+) cells in the CNS (EAE in WT mice; flow cytometry): reduced
- Th17 (IL-17A+) cells in the CNS (EAE in WT mice; flow cytometry): reduced
- infiltration of CD4+ T-cells to the CNS (EAE in WT mice; [2]): reduced infiltration
- infiltration of CD8+ T-cells to the CNS (EAE in WT mice; [2]): reduced infiltration
- infiltration of myeloid cells to the CNS (EAE in WT mice; [2]): reduced infiltration
- neuropathology (EAE in WT mice; spinal cord sections): reduced
- demyelination (EAE in WT mice; spinal cord sections, LFB): reduced
- GSDMD-N in CNS tissue (EAE in WT mice; spinal cord, staining and immunoblot): reduced
- weight (weight loss / weight gain) [1]: alleviated
- weight (weight loss / weight gain) ([1]; listed as DMF): increased weight
- IL-1β secretion (serum) [1, 3]: alleviated
- spleen size (splenomegaly) [1, 3]: alleviated
- liver pathology ([1]; diet containing dimethyl fumarate for 6 weeks, H&E): alleviated
- GSDMD-N (GsdmD-p30) formation in spleen [1, 3]: alleviated
- GSDMD-N (GsdmD-p30) formation in spleen [1, 4]: reduced levels
- spleen size (splenomegaly) [1, 4]: reduced spleen size
- fibrosis of liver and lung ([1]; diet including 0.1% DMF): reduction in fibrosis
- runting ([1]; diet including 0.1% DMF): rescue of runting
